Measurements: patent US20240043903A1, “BIOSENSOR USING PET SUBSTRATE, FABRICATION METHOD THEREFOR, AND METHOD FOR INSPECTING SENSITIVITY OF MICROORGANISM TO ANTIBIOTIC BY USING SAME” (priority 2020, published 2024)

Tested on: E. coli (ATCC25922)
Assay: Susceptibility test of microorganism to antibiotic by real-time capacitance change on interdigitated-electrode PET biosensor
Format: cell-based, Escherichia coli
Conditions: antibiotic 0.5 to 8 μg/mL; for susceptibility of E. coli (ATCC25922) to antibiotic: 10^5 cells/mL; for capacitance change after treatment with antibiotic: E. coli (ATCC25922) 10^5 cells/mL
Method: The strain used in the experiment was Escherichia coli (ATCC25922), and a standard strain was purchased from ATCC of the United States and used. For the culture of the strain, the Mueller-Hinton media (MH media), which is a culture medium recommended by the US standard CLSI and European standard EUCAST, was purchased from DIFCO and used according to the recommended preparation method in the product manual. After culturing the strain in the MH media for 24 hours, the strain culture medium was adjusted to McFarland OD 0.5, and then diluted 1/100 with the culture medium (strain concentration: 5×10^5 to 10^6 cfu/mL) and treated on the sensor.
The susceptibility of microorganisms to antibiotics was measured by using the sensors fabricated in Examples 1 and 2.

[1] = sensor of Example 1 (PET substrate-Ag electrode), FIG. 4b
[2] = sensor of Example 2 (PET substrate-Au electrode), FIG. 5c

CC1(C)S[C@@H]2[C@H](NC(=O)[C@H](N)c3ccccc3)C(=O)N2[C@H]1C(=O)O [ampicillin]
susceptibility of E. coli (ATCC25922) to antibiotic [1]: tolerance (resistance) | capacitance change after treatment with antibiotic [1]: significantly increased capacitance change | susceptibility of E. coli (ATCC25922) to antibiotic [2]: resistance | capacitance change after treatment with antibiotic [2]: capacitance change significantly increased
